Test results published in paper PMC5218480 (PLoS ONE, 2017).

Tested on: MV-4-11 cells
Assay: Gene expression microarray analysis (Affymetrix PrimeView) and GSEA
Format: cell-based, human
Design: RFU PODN (11730768_x_at) / Fold change /veh PODN (11730768_x_at) / RFU LINC00158 (11744669_a_at) / Fold change /veh LINC00158 (11744669_a_at) / RFU DUSP10 (11751237_a_at) / Fold change /veh DUSP10 (11751237_a_at) / RFU ID3 (11757404_x_at) / Fold change /veh ID3 (11757404_x_at) / RFU PLEKHG5 (11737974_s_at) / Fold change /veh PLEKHG5 (11737974_s_at) / RFU LRRC4B (11730491_at) / Fold change /veh LRRC4B (11730491_at) / RFU GIMAP4 (11747438_a_at) / Fold change /veh GIMAP4 (11747438_a_at) / RFU KRT8 (11758183_x_at) / Fold change /veh KRT8 (11758183_x_at) / RFU CNN1 (11734310_a_at) / Fold change /veh CNN1 (11734310_a_at) / RFU VPS37D (11726825_at) / Fold change /veh VPS37D (11726825_at) / RFU C10orf10 (11716522_x_at) / Fold change /veh C10orf10 (11716522_x_at) / RFU KIR2DL2 /// KIR2DL4 /// KIR2DL5A /// KIR2DL5B /// KIR2DS1 /// KIR2DS2 /// KIR2DS3 /// KIR2DS4 /// KIR3DL3 /// KIR3DL3 /// KIR3DS1 (11738374_at) / Fold change /veh KIR2DL2 /// KIR2DL4 /// KIR2DL5A /// KIR2DL5B /// KIR2DS1 /// KIR2DS2 /// KIR2DS3 /// KIR2DS4 /// KIR3DL3 /// KIR3DL3 /// KIR3DS1 (11738374_at) / RFU C1QL1 (11718748_at) / Fold change /veh C1QL1 (11718748_at) / RFU TMPRSS4 (11747572_a_at) / Fold change /veh TMPRSS4 (11747572_a_at) / RFU HAMP (11756126_x_at) / Fold change /veh HAMP (11756126_x_at) / RFU RNFT2 (11725882_a_at) / Fold change /veh RNFT2 (11725882_a_at) / RFU NR4A2 (11747474_a_at) / Fold change /veh NR4A2 (11747474_a_at) / RFU ABCC12 (11746883_a_at) / Fold change /veh ABCC12 (11746883_a_at) / RFU TMEM136 (11760407_x_at) / Fold change /veh TMEM136 (11760407_x_at) / RFU CLDN22 /// WWC2 (11732394_at) / Fold change /veh CLDN22 /// WWC2 (11732394_at) / RFU HLA-DPB1 (11760878_x_at) / Fold change /veh HLA-DPB1 (11760878_x_at) / RFU SPINT1 (11716480_a_at) / Fold change /veh SPINT1 (11716480_a_at) / RFU GAP43 (11754022_s_at) / Fold change /veh GAP43 (11754022_s_at) / RFU A4GNT (11735810_at) / Fold change /veh A4GNT (11735810_at) / RFU PRB3 (11715151_x_at) / Fold change /veh PRB3 (11715151_x_at) / RFU TUBB4B (11761932_at) / Fold change /veh TUBB4B (11761932_at) / RFU CAPN14 (11732068_a_at) / Fold change /veh CAPN14 (11732068_a_at) / RFU TMCC2 (11721928_a_at) / Fold change /veh TMCC2 (11721928_a_at) / RFU IRGQ (11745062_a_at) / Fold change /veh IRGQ (11745062_a_at) / RFU FAM174B (11720279_a_at) / Fold change /veh FAM174B (11720279_a_at) / RFU TMPRSS4 (11748680_a_at) / Fold change /veh TMPRSS4 (11748680_a_at) / RFU FAM212B (11763350_a_at) / Fold change /veh FAM212B (11763350_a_at) / RFU PLEKHG5 (11743358_a_at) / Fold change /veh PLEKHG5 (11743358_a_at) / RFU ZSCAN30 (11745921_a_at) / Fold change /veh ZSCAN30 (11745921_a_at) / RFU CMKLR1 (11741424_a_at) / Fold change /veh CMKLR1 (11741424_a_at) / RFU LOC101060620 /// MAPK8IP1 (11723275_at) / Fold change /veh LOC101060620 /// MAPK8IP1 (11723275_at) / RFU SPTSSB (11747773_x_at) / Fold change /veh SPTSSB (11747773_x_at) / RFU PRSS12 (11739890_at) / Fold change /veh PRSS12 (11739890_at) / RFU BIN1 (11741810_x_at) / Fold change /veh BIN1 (11741810_x_at) / RFU WNT11 (11732464_a_at) / Fold change /veh WNT11 (11732464_a_at) / RFU C10orf10 (11716521_a_at) / Fold change /veh C10orf10 (11716521_a_at) / RFU C5orf56 (11738089_at) / Fold change /veh C5orf56 (11738089_at) / RFU CYB561 (11721691_x_at) / Fold change /veh CYB561 (11721691_x_at) / RFU ANKRD19P (11752326_a_at) / Fold change /veh ANKRD19P (11752326_a_at) / RFU OR2T12 /// OR2T33 /// OR2T8 (11738714_s_at) / Fold change /veh OR2T12 /// OR2T33 /// OR2T8 (11738714_s_at) / RFU VCAN (11748164_a_at) / Fold change /veh VCAN (11748164_a_at) / RFU JSRP1 (11732532_at) / Fold change /veh JSRP1 (11732532_at) / RFU KRTAP10-11 (11738290_x_at) / Fold change /veh KRTAP10-11 (11738290_x_at) / RFU MYO3A (11730013_a_at) / Fold change /veh MYO3A (11730013_a_at) / RFU EBF3 (11725865_a_at) / Fold change /veh EBF3 (11725865_a_at) / RFU CAMK2N1 (11719241_x_at) / Fold change /veh CAMK2N1 (11719241_x_at) / RFU C5orf56 (11738088_a_at) / Fold change /veh C5orf56 (11738088_a_at) / RFU OLFML3 (11715873_a_at) / Fold change /veh OLFML3 (11715873_a_at) / RFU LOC100653217 /// NTM (11731650_a_at) / Fold change /veh LOC100653217 /// NTM (11731650_a_at) / RFU MAPK11 (11762145_a_at) / Fold change /veh MAPK11 (11762145_a_at) / RFU FIZ1 (11724087_x_at) / Fold change /veh FIZ1 (11724087_x_at) / RFU OASL (11726364_x_at) / Fold change /veh OASL (11726364_x_at) / RFU SOX15 (11748057_x_at) / Fold change /veh SOX15 (11748057_x_at) / RFU CD79A (11719716_a_at) / Fold change /veh CD79A (11719716_a_at) / RFU HIST1H1D (11736915_at) / Fold change /veh HIST1H1D (11736915_at) / RFU CASKIN2 (11723855_a_at) / Fold change /veh CASKIN2 (11723855_a_at) / RFU LOC730098 (11760151_x_at) / Fold change /veh LOC730098 (11760151_x_at) / RFU OR4N2 (11742367_at) / Fold change /veh OR4N2 (11742367_at) / RFU PRRT2 (11749266_a_at) / Fold change /veh PRRT2 (11749266_a_at) / RFU SNX32 (11753110_a_at) / Fold change /veh SNX32 (11753110_a_at) / RFU CDHR5 (11726645_a_at) / Fold change /veh CDHR5 (11726645_a_at) / RFU RCAN1 (11760418_a_at) / Fold change /veh RCAN1 (11760418_a_at) / RFU FAM167A (11723789_a_at) / Fold change /veh FAM167A (11723789_a_at) / RFU FAM26E (11764081_at) / Fold change /veh FAM26E (11764081_at) / RFU ISYNA1 (11749810_s_at) / Fold change /veh ISYNA1 (11749810_s_at) / RFU ACY1 (11761880_at) / Fold change /veh ACY1 (11761880_at) / RFU 11764098_at / Fold change /veh 11764098_at / RFU SAMD14 (11745864_x_at) / Fold change /veh SAMD14 (11745864_x_at) / RFU NPB (11741838_a_at) / Fold change /veh NPB (11741838_a_at) / RFU TMPRSS6 (11731388_a_at) / Fold change /veh TMPRSS6 (11731388_a_at) / RFU KRTAP10-2 (11738614_at) / Fold change /veh KRTAP10-2 (11738614_at) / RFU ARHGAP8 /// PRR5-ARHGAP8 (11727945_x_at) / Fold change /veh ARHGAP8 /// PRR5-ARHGAP8 (11727945_x_at) / RFU KRTAP5-7 /// NADSYN1 (11734609_at) / Fold change /veh KRTAP5-7 /// NADSYN1 (11734609_at) / RFU RASL12 (11751679_a_at) / Fold change /veh RASL12 (11751679_a_at) / RFU CDKN2B (11736163_a_at) / Fold change /veh CDKN2B (11736163_a_at) / RFU PRF1 (11729649_at) / Fold change /veh PRF1 (11729649_at) / RFU, ZNF638 /// ZNF638-IT1 / Fold change vs veh, ZNF638 /// ZNF638-IT1 / RFU, PANK3 / Fold change vs veh, PANK3 / RFU, SH3YL1 / Fold change vs veh, SH3YL1 / RFU, ZEB2 / Fold change vs veh, ZEB2 / RFU, NRIP1 / Fold change vs veh, NRIP1 / RFU, PTTG1IP / Fold change vs veh, PTTG1IP / RFU, CAPN2 / Fold change vs veh, CAPN2 / RFU, MED14 / Fold change vs veh, MED14 / RFU, SNORA58 / Fold change vs veh, SNORA58 / RFU, C1orf63 / Fold change vs veh, C1orf63 / RFU, LRRFIP1 / Fold change vs veh, LRRFIP1 / RFU, NDUFAF7 / Fold change vs veh, NDUFAF7 / RFU, SLC12A2 / Fold change vs veh, SLC12A2 / RFU, IBTK / Fold change vs veh, IBTK / RFU, ESF1 / Fold change vs veh, ESF1 / Fold change vs veh, TMEM50B / RFU, TAOK1 / Fold change vs veh, TAOK1 / RFU, ACBD3 / Fold change vs veh, ACBD3 / RFU, TMA16 / Fold change vs veh, TMA16 / RFU, RWDD3 / Fold change vs veh, RWDD3 / RFU, BCAT1 / Fold change vs veh, BCAT1 / RFU, EDEM3 / Fold change vs veh, EDEM3 / RFU, TMEM33 / Fold change vs veh, TMEM33 / RFU, WDR75 / Fold change vs veh, WDR75 / RFU, AHCTF1 / Fold change vs veh, AHCTF1 / RFU, TFRC / Fold change vs veh, TFRC / RFU, ZDHHC17 / Fold change vs veh, ZDHHC17 / RFU, NOM1 / Fold change vs veh, NOM1 / RFU, ARL8B / Fold change vs veh, ARL8B / RFU, ZBTB11 / Fold change vs veh, ZBTB11 / RFU, TAMM41 / Fold change vs veh, TAMM41 / RFU, KIAA1704 /// LOC100996395 / Fold change vs veh, KIAA1704 /// LOC100996395 / RFU, ING1 / Fold change vs veh, ING1 / RFU, TRMT61B / Fold change vs veh, TRMT61B / RFU, FUBP3 / Fold change vs veh, FUBP3 / RFU, TP53 / Fold change vs veh, TP53 / RFU, TNKS2 / Fold change vs veh, TNKS2 / RFU, ZFP14 / Fold change vs veh, ZFP14 / RFU, ACTR2 / Fold change vs veh, ACTR2 / RFU, PPP3R1 / Fold change vs veh, PPP3R1 / RFU, PIK3R1 / Fold change vs veh, PIK3R1 / RFU, HNRNPA1 / Fold change vs veh, HNRNPA1 / RFU, RNF170 / Fold change vs veh, RNF170 / RFU, ZNF28 / Fold change vs veh, ZNF28 / RFU, RNGTT / Fold change vs veh, RNGTT / RFU, OGT / Fold change vs veh, OGT / RFU, BRD1 / Fold change vs veh, BRD1 / RFU, MARS / Fold change vs veh, MARS / RFU, ZNF655 / Fold change vs veh, ZNF655 / RFU, FAHD1 / Fold change vs veh, FAHD1 / RFU, BDP1 / Fold change vs veh, BDP1 / RFU, LRRCC1 / Fold change vs veh, LRRCC1 / RFU, ARID1A / Fold change vs veh, ARID1A / RFU, ZNF146 / Fold change vs veh, ZNF146 / RFU, ZNF330 / Fold change vs veh, ZNF330 / RFU, GPN3 / Fold change vs veh, GPN3 / RFU, C9orf123 / Fold change vs veh, C9orf123 / RFU, N4BP2L2 / Fold change vs veh, N4BP2L2 / RFU, ARFIP1 / Fold change vs veh, ARFIP1 / RFU, FAM179B / Fold change vs veh, FAM179B / RFU, BCL10 / Fold change vs veh, BCL10 / RFU, UHRF1BP1L / Fold change vs veh, UHRF1BP1L / RFU, BET1 / Fold change vs veh, BET1 / RFU, CNOT2 / Fold change vs veh, CNOT2 / RFU, ZNF268 / Fold change vs veh, ZNF268 / Fold change vs veh, ZNF507 / RFU, DGCR2 / Fold change vs veh, DGCR2 / RFU, WDSUB1 / Fold change vs veh, WDSUB1 / Fold change vs veh, HSP90B1 /// MIR3652 / RFU, ADSS / Fold change vs veh, ADSS / RFU, GK / Fold change vs veh, GK / RFU, ZNF148 / Fold change vs veh, ZNF148 / RFU, TAF9 / Fold change vs veh, TAF9 / RFU, SLC1A5 / Fold change vs veh, SLC1A5 / RFU, SLMO2 / Fold change vs veh, SLMO2 / RFU, ABCC4 / Fold change vs veh, ABCC4 / RFU, LOC101060439 /// RAP1B / Fold change vs veh, LOC101060439 /// RAP1B / RFU, RFX7 / Fold change vs veh, RFX7 / RFU, GTPBP10 / Fold change vs veh, GTPBP10 / RFU, CNEP1R1 / Fold change vs veh, CNEP1R1 / RFU, BIVM-ERCC5 /// ERCC5 / Fold change vs veh, BIVM-ERCC5 /// ERCC5 / RFU, ILF3 / Fold change vs veh, ILF3 / RFU 11762660_at / Fold change /veh 11762660_at / RFU VCAN (11757783_s_at) / Fold change /veh VCAN (11757783_s_at) / RFU DDX43 (11728927_at) / Fold change /veh DDX43 (11728927_at) / RFU KRT8 (11758188_x_at) / Fold change /veh KRT8 (11758188_x_at) / RFU NKD1 (11759106_at) / Fold change /veh NKD1 (11759106_at) / RFU SRD5A1 (11742802_a_at) / Fold change /veh SRD5A1 (11742802_a_at) / RFU TPSAB1 /// TPSB2 (11721975_s_at) / Fold change /veh TPSAB1 /// TPSB2 (11721975_s_at) / RFU GSTM3 (11746129_a_at) / Fold change /veh GSTM3 (11746129_a_at) / RFU IL23R (11737362_x_at) / Fold change /veh IL23R (11737362_x_at) / RFU TMEM51 (11727254_a_at) / Fold change /veh TMEM51 (11727254_a_at) / RFU PIWIL2 (11732686_x_at) / Fold change /veh PIWIL2 (11732686_x_at) / RFU ORM1 (11744905_x_at) / Fold change /veh ORM1 (11744905_x_at) / RFU CCDC152 (11743942_at) / Fold change /veh CCDC152 (11743942_at) / RFU ECM1 (11717891_a_at) / Fold change /veh ECM1 (11717891_a_at) / RFU IL23R (11748794_a_at) / Fold change /veh IL23R (11748794_a_at) / RFU TNFAIP8L3 (11732012_x_at) / Fold change /veh TNFAIP8L3 (11732012_x_at) / RFU MBOAT4 (11741988_at) / Fold change /veh MBOAT4 (11741988_at) / RFU 11764193_at / Fold change /veh 11764193_at / RFU TMEM53 (11763286_at) / Fold change /veh TMEM53 (11763286_at) / RFU MAGEB2 (11727129_at) / Fold change /veh MAGEB2 (11727129_at) / RFU TMEM200A (11744735_a_at) / Fold change /veh TMEM200A (11744735_a_at) / RFU CCDC152 (11751479_a_at) / Fold change /veh CCDC152 (11751479_a_at) / RFU FAM211A (11726209_a_at) / Fold change /veh FAM211A (11726209_a_at) / RFU RGS16 (11746705_a_at) / Fold change /veh RGS16 (11746705_a_at) / RFU VCAN (11755009_s_at) / Fold change /veh VCAN (11755009_s_at) / RFU RHOB (11743442_s_at) / Fold change /veh RHOB (11743442_s_at) / RFU RGS16 (11720943_a_at) / Fold change /veh RGS16 (11720943_a_at) / RFU RGS16 (11720944_at) / Fold change /veh RGS16 (11720944_at) / RFU, VPS4B / Fold change vs veh, VPS4B / RFU, CREB1 / Fold change vs veh, CREB1 / RFU, DNAJC13 / Fold change vs veh, DNAJC13 / RFU, GNAQ / Fold change vs veh, GNAQ / RFU, CDK5R1 / Fold change vs veh, CDK5R1 / RFU, ZRANB3 / Fold change vs veh, ZRANB3 / RFU, CUL4A / Fold change vs veh, CUL4A / RFU, CCNY / Fold change vs veh, CCNY / RFU, UFL1 / Fold change vs veh, UFL1 / RFU, COG3 / Fold change vs veh, COG3 / RFU, DIAPH2 / Fold change vs veh, DIAPH2 / RFU, SKA2 / Fold change vs veh, SKA2 / RFU, AFF3 / Fold change vs veh, AFF3 / RFU, LMF1 / Fold change vs veh, LMF1 / RFU, IPO11 / Fold change vs veh, IPO11 / RFU, DFFB / Fold change vs veh, DFFB / RFU, FOXP1 / Fold change vs veh, FOXP1 / RFU, CARD8 / Fold change vs veh, CARD8 / RFU, STRN3 / Fold change vs veh, STRN3 / RFU, ADK / Fold change vs veh, ADK / RFU, RASSF2 / Fold change vs veh, RASSF2 / RFU, WIPF1 / Fold change vs veh, WIPF1 / RFU, LARP1B / Fold change vs veh, LARP1B / RFU, RASA1 / Fold change vs veh, RASA1 / RFU, RB1 / Fold change vs veh, RB1 / RFU, PPFIA1 / Fold change vs veh, PPFIA1 / RFU, MAT2A / Fold change vs veh, MAT2A / RFU, CCT5 / Fold change vs veh, CCT5 / RFU, WDR92 / Fold change vs veh, WDR92 / RFU, CUX1 / Fold change vs veh, CUX1 / RFU, TTC7A / Fold change vs veh, TTC7A / RFU, TMEM135 / Fold change vs veh, TMEM135 / RFU, DEPTOR / Fold change vs veh, DEPTOR / RFU, CPM / Fold change vs veh, CPM / RFU, DNAJB6 / Fold change vs veh, DNAJB6 / RFU, CACNA2D3 / Fold change vs veh, CACNA2D3 / RFU, DTX4 / Fold change vs veh, DTX4 / RFU, TFCP2 / Fold change vs veh, TFCP2 / RFU, GMCL1 /// GMCL1P1 / Fold change vs veh, GMCL1 /// GMCL1P1 / RFU, AEBP2 / Fold change vs veh, AEBP2 / RFU, SNHG1 /// SNORD22 /// SNORD25 /// SNORD26 /// SNORD27 /// SNORD28 /// SNORD29 /// SNORD31 / Fold change vs veh, SNHG1 /// SNORD22 /// SNORD25 /// SNORD26 /// SNORD27 /// SNORD28 /// SNORD29 /// SNORD31 / Fold change (Aza/veh), C12orf56 (ProbeSet 11735607_a_at) / Fold change (ACY-1035/veh), C12orf56 (ProbeSet 11735607_a_at) / Fold change (Aza/veh), FGFR1OP (ProbeSet 11751329_s_at) / Fold change (ACY-1035/veh), FGFR1OP (ProbeSet 11751329_s_at) / Fold change (Aza/veh), VPS36 (ProbeSet 11739960_a_at) / Fold change (ACY-1035/veh), VPS36 (ProbeSet 11739960_a_at) / RFU SYPL1 (11715823_x_at) / Fold change /veh SYPL1 (11715823_x_at) / RFU IGFBP7 (11715501_s_at) / Fold change /veh IGFBP7 (11715501_s_at) / RFU REEP3 (11722064_at) / Fold change /veh REEP3 (11722064_at) / RFU IGLL1 (11728026_x_at) / Fold change /veh IGLL1 (11728026_x_at): dose or concentration left out as unconfirmed
Conditions: ProbeSet 11719185_x_at; LIST B

**Q.** Which “RFU, N4BP2L2” value does the source give for `Nc1ncn([C@@H]2O[C@H](CO)[C@@H](O)[C@H]2O)c(=O)n1` [azacitidine] here?
**A.** Its value is 91.08 RFU.
